Results as given in patent publication US11000033B2, “Ketone or oxime compound, and herbicide” (NISSAN CHEMICAL CORPORATION, priority 2014, dated 2021).

Assays:
Format in all cases: in vivo
Scirpus juncoides = assay: Test Example 1: herbicidal activity, application before weed generation in submerged conditions (symbol B); conditions: application herbicide amount 320 g/ha
Method in brief: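 0–5 visual score, 3 wk post-application. Submerged pots, alluvial soil, water 4 cm; seeds sown mixed, rice at 2.5 leaves transplanted. Emulsion diluted to predetermined dose, applied to water surface at sowing. 25–30 °C greenhouse.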

Leptochloa chinensis = assay: Test Example 3: herbicidal effect by foliage application, Wagner pot (symbol D); conditions: application herbicide amount 320 g/ha
Method in brief: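 Scoring took place 3 weeks after application, using fixed criteria. Plants had been raised from seed for 14 days at 25 to 30 °C in submerged alluvial soil before a diluted emulsion of the test compound was sprayed uniformly on the leaves.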

[1] = tested on: directly sowed rice plant; assay: Test Example 3: effect on crop by foliage application, Wagner pot (symbol b); conditions: application herbicide amount 320 g/ha
Method in brief: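 Greenhouse culture at 25–30 °C of seeded rice, Cyperus difformis, Leptochloa chinensis and Echinochloa crus-galli var. crus-galli, in alluvial soil held under 0.1–0.5 cm of water in a Wagner pot.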

Alopecurus myosuroides [2] = assay: Test Example 4: herbicidal effect by soil treatment (symbol J)
Method in brief: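 Seeds were sown in sterilized diluvial soil, covered with about 1.5 cm of soil, and the soil surface was sprayed with a water-diluted emulsion of the compound at a predetermined rate. Plants grew in a greenhouse at 25° C. to 30° C.; effects were scored visually 3 weeks after application.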

soybean = assay: Test Example 4: effect on crop by soil treatment (symbol d); conditions: for d: soybean, effect on crop grade: application herbicide amount 320 g/ha
Method in brief: (§1)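 Seeds were sown in spots on sterilized diluvial soil in a plastic box and covered with about 1.5 cm of soil. Plants were then grown in a greenhouse at 25° C. to 30° C.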

rice = assay: Test Example 4: effect on crop by soil treatment (symbol b); conditions: for b: directly sowed rice plant, effect on crop grade: application herbicide amount 320 g/ha
Method in brief: as §1

beet = assay: Test Example 4: effect on crop by soil treatment (symbol f); conditions: for f: beet, effect on crop grade: application herbicide amount 320 g/ha
Method in brief: as §1

Digitaria ciliaris = assay: Test Example 5: herbicidal effect by foliage application, plastic box (symbol F); conditions: 320 g/ha, 3 weeks after application
Method in brief: (§2)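 After sowing into sterilized diluvial soil and growing two weeks under glass at 25° C. to 30° C., seedlings receive a uniform foliar spray of diluted emulsion. Damage is judged visually three weeks on.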

[3] = tested on: Echinochloa crus-galli var. crus-galli; assay: Test Example 5: herbicidal effect by foliage application, plastic box (symbol H); conditions: 320 g/ha, 3 weeks after application
Method in brief: as §2

Alopecurus myosuroides [4] = assay: Test Example 5: herbicidal effect by foliage application, plastic box (symbol J); conditions: 320 g/ha, 3 weeks after application
Method in brief: as §2

Apera spica-venti = assay: Test Example 5: herbicidal effect by foliage application, plastic box (symbol L); conditions: 320 g/ha, 3 weeks after application
Method in brief: as §2

Chenopodium album = assay: Test Example 5: herbicidal effect by foliage application, plastic box (symbol O); conditions: 320 g/ha, 3 weeks after application
Method in brief: as §2

Galium spurium = assay: Test Example 5: herbicidal effect by foliage application, plastic box (symbol Q); conditions: 320 g/ha, 3 weeks after application
Method in brief: as §2

Veronica persica = assay: Test Example 5: herbicidal effect by foliage application, plastic box (symbol R); conditions: 320 g/ha, 3 weeks after application
Method in brief: as §2

rapeseed = assay: Test Example 5: effect on crop by foliage application, plastic box (symbol g); conditions: 320 g/ha, 3 weeks after application
Method in brief: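 Greenhouse culture at 25° C. to 30° C. followed spot-like sowing into sterilized diluvial soil, with seed covered by roughly 1.5 cm of soil.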

[5] = application herbicide amount 320 g/ha

Compound: CON=C(C)CC1CC(O)=C(c2c(C)cc(C(C)=O)cc2C)C1=O (stereo not drawn) [6-026]
- Herbicidal effect grade, B: Scirpus juncoides (Scirpus juncoides): 0 (Herbicidal ratio of 5% or lower (almost no effect))
- herbicidal effect on D (Leptochloa chinensis), grade 0-5 (Leptochloa chinensis): 5 (Herbicidal ratio of 90% or more (almost completely withered))
- effect on crop b (directly sowed rice plant), grade 0-5 [1]: 5 (Herbicidal ratio of 90% or more (almost completely withered))
- J: Alopecurus myosuroides, herbicidal effect grade (Alopecurus myosuroides [2]; [5]): 1 (Herbicidal ratio of 5% or higher and lower than 20%)
- d: soybean, effect on crop grade (soybean): 0 (Herbicidal ratio of 5% or lower (almost no effect))
- b: directly sowed rice plant, effect on crop grade (rice): 5 (Herbicidal ratio of 90% or more (almost completely withered))
- f: beet, effect on crop grade (beet): 0 (Herbicidal ratio of 5% or lower (almost no effect))
- F: Digitaria ciliaris, herbicidal effect grade (Digitaria ciliaris): 5 (Herbicidal ratio of 90% or more (almost completely withered))
- H: Echinochloa crus-galli var. crus-galli, herbicidal effect grade [3]: 5 (Herbicidal ratio of 90% or more (almost completely withered))
- J: Alopecurus myosuroides, herbicidal effect grade (Alopecurus myosuroides [4]): 5 (Herbicidal ratio of 90% or more (almost completely withered))
- L: Apera spica-venti, herbicidal effect grade (Apera spica-venti): 3 (Herbicidal ratio of 40% or higher and lower than 70%)
- O: Chenopodium album, herbicidal effect grade (Chenopodium album): 0 (Herbicidal ratio of 5% or lower (almost no effect))
- Q: Galium spurium, herbicidal effect grade (Galium spurium): 0 (Herbicidal ratio of 5% or lower (almost no effect))
- R: Veronica persica, herbicidal effect grade (Veronica persica): 1 (Herbicidal ratio of 5% or higher and lower than 20%)
- g: rapeseed, effect on crop grade (rapeseed): 3 (Herbicidal ratio of 40% or higher and lower than 70%)

Compound: Cc1cc(C)c(C2=C(O)CC(CC(=O)CC3CC3)C2=O)c(C)c1 (stereo not drawn) [2-026]
- Herbicidal effect grade, B: Scirpus juncoides (Scirpus juncoides): 3 (Herbicidal ratio of 40% or higher and lower than 70%)
- herbicidal effect on D (Leptochloa chinensis), grade 0-5 (Leptochloa chinensis): 4 (Herbicidal ratio of 70% or higher and lower than 90%)
- effect on crop b (directly sowed rice plant), grade 0-5 [1]: 5 (Herbicidal ratio of 90% or more (almost completely withered))
- J: Alopecurus myosuroides, herbicidal effect grade (Alopecurus myosuroides [2]; [5]): 3 (Herbicidal ratio of 40% or higher and lower than 70%)
- d: soybean, effect on crop grade (soybean): 0 (Herbicidal ratio of 5% or lower (almost no effect))
- b: directly sowed rice plant, effect on crop grade (rice): 5 (Herbicidal ratio of 90% or more (almost completely withered))
- f: beet, effect on crop grade (beet): 0 (Herbicidal ratio of 5% or lower (almost no effect))
- F: Digitaria ciliaris, herbicidal effect grade (Digitaria ciliaris): 4 (Herbicidal ratio of 70% or higher and lower than 90%)
- H: Echinochloa crus-galli var. crus-galli, herbicidal effect grade [3]: 4 (Herbicidal ratio of 70% or higher and lower than 90%)
- J: Alopecurus myosuroides, herbicidal effect grade (Alopecurus myosuroides [4]): 4 (Herbicidal ratio of 70% or higher and lower than 90%)
- L: Apera spica-venti, herbicidal effect grade (Apera spica-venti): 3 (Herbicidal ratio of 40% or higher and lower than 70%)
- O: Chenopodium album, herbicidal effect grade (Chenopodium album): 0 (Herbicidal ratio of 5% or lower (almost no effect))
- Q: Galium spurium, herbicidal effect grade (Galium spurium): 0 (Herbicidal ratio of 5% or lower (almost no effect))
- R: Veronica persica, herbicidal effect grade (Veronica persica): 0 (Herbicidal ratio of 5% or lower (almost no effect))
- g: rapeseed, effect on crop grade (rapeseed): 3 (Herbicidal ratio of 40% or higher and lower than 70%)

Compound: C=CCOC(=O)OC1=C(c2c(C)cc(C)cc2C)C(=O)C(CC(C)=NOC)C1 (stereo not drawn) [1-146]
- Herbicidal effect grade, B: Scirpus juncoides (Scirpus juncoides): 5 (Herbicidal ratio of 90% or more (almost completely withered))
- herbicidal effect on D (Leptochloa chinensis), grade 0-5 (Leptochloa chinensis): 5 (Herbicidal ratio of 90% or more (almost completely withered))
- effect on crop b (directly sowed rice plant), grade 0-5 [1]: 5 (Herbicidal ratio of 90% or more (almost completely withered))
- J: Alopecurus myosuroides, herbicidal effect grade (Alopecurus myosuroides [2]; 320 g/ha): 5 (Herbicidal ratio of 90% or more (almost completely withered))
- d: soybean, effect grade on crop (soybean; 320 g/ha): 0 (Herbicidal ratio of 5% or lower (almost no effect))
- b: directly sowed rice plant, effect grade on crop (rice; 320 g/ha): 5 (Herbicidal ratio of 90% or more (almost completely withered))
- f: beet, effect grade on crop (beet; 320 g/ha): 3 (Herbicidal ratio of 40% or higher and lower than 70%)
- F: Digitaria ciliaris, herbicidal effect (criteria 0-5) (Digitaria ciliaris): 5 (Herbicidal ratio of 90% or more (almost completely withered))
- H: Echinochloa crus-galli var. crus-galli, herbicidal effect (criteria 0-5) [3]: 5 (Herbicidal ratio of 90% or more (almost completely withered))
- J: Alopecurus myosuroides, herbicidal effect (criteria 0-5) (Alopecurus myosuroides [4]): 5 (Herbicidal ratio of 90% or more (almost completely withered))
- L: Apera spica-venti, herbicidal effect (criteria 0-5) (Apera spica-venti): 5 (Herbicidal ratio of 90% or more (almost completely withered))
- O: Chenopodium album, herbicidal effect (criteria 0-5) (Chenopodium album): 2 (Herbicidal ratio of 20% or higher and lower than 40%)
- Q: Galium spurium, herbicidal effect (criteria 0-5) (Galium spurium): 3 (Herbicidal ratio of 40% or higher and lower than 70%)
- R: Veronica persica, herbicidal effect (criteria 0-5) (Veronica persica): 3 (Herbicidal ratio of 40% or higher and lower than 70%)
- g: rapeseed, effect on crop (criteria 0-5) (rapeseed): 5 (Herbicidal ratio of 90% or more (almost completely withered))

Compound: Cc1cc(C)c(C2=C(O)CC(CC(=O)C3CCCCC3)C2=O)c(C)c1 (stereo not drawn) [2-030]
- Herbicidal effect grade, B: Scirpus juncoides (Scirpus juncoides): 0 (Herbicidal ratio of 5% or lower (almost no effect))
- herbicidal effect on D (Leptochloa chinensis), grade 0-5 (Leptochloa chinensis): 5 (Herbicidal ratio of 90% or more (almost completely withered))
- effect on crop b (directly sowed rice plant), grade 0-5 [1]: 5 (Herbicidal ratio of 90% or more (almost completely withered))
- J: Alopecurus myosuroides, herbicidal effect grade (Alopecurus myosuroides [2]; [5]): 3 (Herbicidal ratio of 40% or higher and lower than 70%)
- d: soybean, effect on crop grade (soybean): 0 (Herbicidal ratio of 5% or lower (almost no effect))
- b: directly sowed rice plant, effect on crop grade (rice): 5 (Herbicidal ratio of 90% or more (almost completely withered))
- f: beet, effect on crop grade (beet): 0 (Herbicidal ratio of 5% or lower (almost no effect))
- F: Digitaria ciliaris, herbicidal effect grade (Digitaria ciliaris): 4 (Herbicidal ratio of 70% or higher and lower than 90%)
- H: Echinochloa crus-galli var. crus-galli, herbicidal effect grade [3]: 4 (Herbicidal ratio of 70% or higher and lower than 90%)
- J: Alopecurus myosuroides, herbicidal effect grade (Alopecurus myosuroides [4]): 3 (Herbicidal ratio of 40% or higher and lower than 70%)
- L: Apera spica-venti, herbicidal effect grade (Apera spica-venti): 2 (Herbicidal ratio of 20% or higher and lower than 40%)
- O: Chenopodium album, herbicidal effect grade (Chenopodium album): 0 (Herbicidal ratio of 5% or lower (almost no effect))
- Q: Galium spurium, herbicidal effect grade (Galium spurium): 0 (Herbicidal ratio of 5% or lower (almost no effect))
- R: Veronica persica, herbicidal effect grade (Veronica persica): 1 (Herbicidal ratio of 5% or higher and lower than 20%)
- g: rapeseed, effect on crop grade (rapeseed): 3 (Herbicidal ratio of 40% or higher and lower than 70%)

Compound: Cc1cc(C)c(C2=C(O)CC(CC(=O)c3ccc(F)cc3)C2=O)c(C)c1 (stereo not drawn) [2-032]
- Herbicidal effect grade, B: Scirpus juncoides (Scirpus juncoides): 4 (Herbicidal ratio of 70% or higher and lower than 90%)
- herbicidal effect on D (Leptochloa chinensis), grade 0-5 (Leptochloa chinensis): 3 (Herbicidal ratio of 40% or higher and lower than 70%)
- effect on crop b (directly sowed rice plant), grade 0-5 [1]: 5 (Herbicidal ratio of 90% or more (almost completely withered))
- J: Alopecurus myosuroides, herbicidal effect grade (Alopecurus myosuroides [2]; [5]): 5 (Herbicidal ratio of 90% or more (almost completely withered))
- d: soybean, effect on crop grade (soybean): 0 (Herbicidal ratio of 5% or lower (almost no effect))
- b: directly sowed rice plant, effect on crop grade (rice): 5 (Herbicidal ratio of 90% or more (almost completely withered))
- f: beet, effect on crop grade (beet): 0 (Herbicidal ratio of 5% or lower (almost no effect))
- F: Digitaria ciliaris, herbicidal effect grade (Digitaria ciliaris): 2 (Herbicidal ratio of 20% or higher and lower than 40%)
- H: Echinochloa crus-galli var. crus-galli, herbicidal effect grade [3]: 5 (Herbicidal ratio of 90% or more (almost completely withered))
- J: Alopecurus myosuroides, herbicidal effect grade (Alopecurus myosuroides [4]): 4 (Herbicidal ratio of 70% or higher and lower than 90%)
- L: Apera spica-venti, herbicidal effect grade (Apera spica-venti): 5 (Herbicidal ratio of 90% or more (almost completely withered))
- O: Chenopodium album, herbicidal effect grade (Chenopodium album): 0 (Herbicidal ratio of 5% or lower (almost no effect))
- Q: Galium spurium, herbicidal effect grade (Galium spurium): 0 (Herbicidal ratio of 5% or lower (almost no effect))
- R: Veronica persica, herbicidal effect grade (Veronica persica): 0 (Herbicidal ratio of 5% or lower (almost no effect))
- g: rapeseed, effect on crop grade (rapeseed): 4 (Herbicidal ratio of 70% or higher and lower than 90%)
